Tests used:
[1] = Stability Test 1 (60° C.), storage for a week; HPLC, powder X-ray diffraction, appearance; type: physicochemical; conditions: for residual percentage (chemical purity %): HPLC; for crystal form: powder X-ray diffraction
Protocol: (§1) The powder X-ray diffraction data of each crystal polymorph were measured by X-ray diffractometer RINT 2100 ultima+manufactured by Rigaku Denki Corporation (measuring conditions; CuK α rays, 40 kV in X-ray tube voltage, 40 mA in X-ray tube current). The 2θ value of diffraction pattern by the powder X-ray diffractometry may deviate in some cases by a factor of about 0.5° depending on the sample conditions and measuring conditions. In addition, due to the properties of data, a total diffraction pattern of the powder X-ray diffractometry is important for the identification of crystals. The TG/DTA measurements of each crystal polymorph were conducted by thermogravimetry analyzer (TG/DTA) ThermoPlus 2 series TG8120 manufactured by Rigaku Denki Corporation (measuring conditions; temperature rising rate 10° C./minutes, samplepan (Al), reference (Al2O3), under a nitrogen atmosphere). Melting points of each crystal were searched from differential thermal analysis (DTA) endothermic peak (extrapolation). The solid state C^13-NMR spectrums of each crystal polymorph were measured by AVANCE/DRX500 manufactured by Bruker (measuring conditions; accumulated counts 512 times, contact time 3 msec, repeated time 5 sec, probe 4 mm MAS, observed frequency 125.77 Mhz, spinning rate 10000 Hz).
After ethyl (−)-2-[4-[2-[[(1S,2R)-2-hydroxy-2-(4-hydroxyphenyl)-1-methylethyl]amino]ethyl]-2,5-dimethylphenoxy]-acetate hydrochloride obtained in Example 1 was stored at 60° C. for a week, chemical stability was determined by measuring the residual percentage of ethyl (−)-2-[4-[2-[[(1S,2R)-2-hydroxy-2-(4-hydroxylphenyl)-1-methylethyl]amino]ethyl]-2,5-dimethylphenoxy]acetate hydrochloride by HPLC and polymorphic stability was examined by the powder X-ray diffraction measurement.

[2] = Stability Test 2 (140° C.), heating, powder X-ray diffraction; type: physicochemical; conditions: after heating to 140° C.
Protocol: as §1, with “Hz). […]” for “Hz).”

[3] = after 1 week storage at 60° C., hydrochloride
[4] = after 1 week storage at 60° C., listed as crystal form C, hydrochloride

## CCOC(=O)COc1cc(C)c(CCN[C@@H](C)[C@H](O)c2ccc(O)cc2)cc1C.Cl [crystalline form C, ethyl (−)-2-[4-[2-[[(1S,2R)-2-hydroxy-2-(4-hydroxyphenyl)-1-methylethyl]amino]ethyl]-2,5-dimethylphenoxy]-acetate hydrochloride]
[1]; [3]
  residual percentage (chemical purity %): constant
  appearance: no change in appearance
  crystal form: polymorphic transformation did not occur
[1]; [4]
  residual percentage (chemical purity %): 99.6%
  appearance: white
  crystal form: crystal form C
[1]; at start
  appearance: white
  residual percentage (chemical purity %): 99.6%
  crystal form: crystal form C
[2]
  change of the crystalline form: still crystalline form C

Reference: patent US7763654B2, “Crystal polymorph of hydroxynorephedrin derivative hydrochloride” (Kissei Pharmaceutical Co., Ltd., priority 2005, dated 2010)
